In PubChem BioAssay AID1549 (Sanford-Burnham Center for Chemical Genomics, 2009) one finds Kd data, which are given here for 107 molecules.

Active and inactive are the calls of the source. The rule behind the calls is not given here.

The assay deals with Influenza A virus M2 proton channel (A/TW/4845/1999 H1N1). As to the kind of experiment: NMR binding screen, influenza A virus M2 proton channel, Kd (AID 1549). The note with it: M2 protein.
`Cc1cc(NS(=O)(=O)Cc2ccccc2)no1`: the Kd was > 4 mM (inactive).

Consider `Cc1onc(-c2ccc(F)cc2)c1C(=O)O`, for which the Kd is > 4 mM (inactive).

Consider `Cn1c2ccccc2n2c(=S)[nH]nc12`, for which the Kd is > 4 mM (inactive).

For the molecule `CC(=O)N/N=C(\C)c1cccc(N)c1`, the Kd was > 4 mM (inactive).

Consider `Cc1oc(-c2ccccc2)cc1C(N)=O`, for which the Kd is > 4 mM (inactive).

For the molecule `CC(C)(CO)NC(=O)c1ccccc1F`, the Kd is > 4 mM (inactive).

For the molecule `CC(=O)Nn1c(=O)[nH]c2ccccc2c1=O`, the Kd is > 4 mM (inactive).

Regarding `Cn1cnc2c1c(=O)[nH]c(=O)n2C`, the Kd is > 4 mM (inactive).

`Cc1onc(-c2ccccc2)c1CN`: the Kd is > 4 mM (inactive).

On to `Cc1cc(NC(=O)c2ccc3c(c2)OCO3)no1`, for which the Kd was > 4 mM (inactive).

On to `Cc1ccc(N2C(=O)CC(=O)NC2=O)cc1`, for which the Kd is > 4 mM (inactive).

For `Cc1nnc2n(c1=O)N=C(c1ccccc1)CS2`, the Kd was > 4 mM (inactive).

On to `O=[N+]([O-])c1c[n+]([O-])n(-c2ccccc2)n1`, for which the Kd is > 4 mM (inactive).

In the case of `COc1cc([C@H]2Oc3cc([C@H]4Oc5cc(O)cc(O)c5C(=O)[C@@H]4O)ccc3O[C@@H]2CO)ccc1O`, the Kd is > 4 mM (inactive).

On to `Cc1[nH]c(=O)[nH]c(=O)c1N1CCOCC1`, for which the Kd was > 4 mM (inactive).

For `CC(C)NC1CS(=O)(=O)CC1O` (configuration not stated), the Kd was > 4 mM (inactive).

On to `Cn1c(=O)c2c(ncn2CCN)n(C)c1=O`, for which the Kd is > 4 mM (inactive).

For the molecule `O=C1c2cccnc2C(=O)N1Cc1ccc2c(c1)OCO2`, the Kd is > 4 mM (inactive).

For the molecule `O=C(CS(=O)(=O)c1ccccc1)N1CCCCCC1`, the Kd is > 4 mM (inactive).

Regarding `CC1(C)N=C2C(=N)C=CC=C2N1O`, the Kd was > 4 mM (inactive).

In the case of `O=C(/C=C/c1ccco1)NC1=NCCS1`, the Kd was > 4 mM (inactive).

With `O=C(NN1CCOCC1)c1cccs1`, the Kd was > 4 mM (inactive).

On to `COc1ccc(Cl)cc1NC(=O)C(N)=O`, for which the Kd was > 4 mM (inactive).

For `CN1CCC(NC(=S)NC2CC2)CC1`, the Kd was > 4 mM (inactive).

For the molecule `COc1ccc(-c2coc3cc(O)ccc3c2=O)cc1`, the Kd was > 4 mM (inactive).

With `CN1CCN(c2ccc(C(=O)O)cc2)CC1`, the Kd is > 4 mM (inactive).

On to `O=C(NCc1cccc(Cl)c1)c1ccco1`, for which the Kd was > 4 mM (inactive).

With `CC(=O)NCCc1cc2ccc(C)c(C)c2[nH]c1=O`, the Kd was > 4 mM (inactive).

For the molecule `Cc1nccc(-c2cccc(N)c2)n1`, the Kd is > 4 mM (inactive).

With `CC(=O)Nc1cccc(-c2nnc3n2CC(C)S3)c1` (configuration not stated), the Kd was > 4 mM (inactive).

Consider `Cc1c(CO)cnn1-c1ccc(F)cc1`, for which the Kd was > 4 mM (inactive).

For the molecule `Cn1cnnc1SCCCNC(=O)Nc1ncccn1`, the Kd was > 4 mM (inactive).

On to `CN=C1SC(CC(=O)Nc2ccc(O)cc2)C(=O)N1C` (configuration not stated), for which the Kd was > 4 mM (inactive).

`Nc1nnc(-c2ccncc2)s1`: the Kd is > 4 mM (inactive).

On to `CN=C(C)c1c(O)n(C)c(=O)n(C)c1=O`, for which the Kd was > 4 mM (inactive).

Consider `CC1=C(CCC(=O)O)c2cc3nc(cc4[nH]c(cc5[nH]c(cc1n2)c(C)c5C(C)O)c(C)c4C(C)O)C(C)=C3CCC(=O)O` (configuration not stated), for which the Kd is > 4 mM (inactive).

`C/C=C(/C)C(=O)O[C@@H]1Cc2c(ccc3ccc(=O)oc23)OC1(C)C`: the Kd is > 4 mM (inactive).

Take `Nc1[nH]c(=S)[nH]c(=O)c1-c1ccccc1`: the Kd was > 4 mM (inactive).

As to `c1ccc(Cn2cccc2)nc1`, the Kd was > 4 mM (inactive).

For the molecule `CC(=O)NC(=S)Nc1ccccc1C`, the Kd is > 4 mM (inactive).

As for `O=c1cnnc(N2CCCCC2)[nH]1`, the Kd was > 4 mM (inactive).

`O=CN1CCN(C(=O)c2ccccc2F)CC1`: the Kd is > 4 mM (inactive).

Consider `Cc1cc(C(=O)NCc2ccco2)cs1`, for which the Kd was > 4 mM (inactive).

In the case of `NC1=NC(=O)/C(=C\c2ccccc2)S1`, the Kd is > 4 mM (inactive).

Regarding `CC(C)[C@@H]1CC[C@@H](C)CC1=O`, the Kd was > 4 mM (inactive).

As to `CC(=O)N1CCN(c2ccc(N)cc2)CC1`, the Kd was > 4 mM (inactive).

For the molecule `O=c1[nH]c2c(c(=O)n1C1CCCCC1)CCC2`, the Kd is > 4 mM (inactive).

`COc1ccc(-c2cc3nc4n(c(=O)c3s2)CCC4)cc1`: the Kd is > 4 mM (inactive).

Regarding `Cc1cn(C(=O)CN2C(=O)c3ccccc3C2=O)c(C)n1`, the Kd was > 4 mM (inactive).

In the case of `OCc1csc(-c2ccccc2)n1`, the Kd was > 4 mM (inactive).

With `NC(=O)Cn1nc(-c2ccco2)ccc1=O`, the Kd was > 4 mM (inactive).

For `CC(=O)c1cc(C)ccc1O`, the Kd was > 4 mM (inactive).

Take `CC(C)=CC(=O)Nc1ccc(S(N)(=O)=O)cc1`: the Kd is > 4 mM (inactive).

Regarding `CC1=C(/C=C/C(C)=C/C=C/C(C)=C/C=C/C=C(C)/C=C/C=C(C)/C=C/C(=O)[C@]2(C)C[C@@H](O)CC2(C)C)C(C)(C)C[C@H](O)C1`, the Kd is > 4 mM (inactive).

For the molecule `O=c1cccc2n1CC1CC2CN2CCCC[C@@H]12` (some centres not stated), the Kd was > 4 mM (inactive).

Turning to `CCOC(=O)C1CCNCC1`, the Kd is > 4 mM (inactive).

For `Cc1occc1C(=O)Nc1ccc2c(c1)OCO2`, the Kd was > 4 mM (inactive).

Take `C[C@H]1O[C@@H](O[C@H]2[C@@H](O)C[C@H](O[C@H]3[C@@H](O)C[C@H](O[C@H]4CC[C@]5(C)C6C[C@@H](O)[C@]7(C)[C@@H](C8=CC(=O)OC8)CC[C@]7(O)C6CC[C@@H]5C4)O[C@@H]3C)O[C@@H]2C)C[C@H](O)[C@@H]1O` (some centres not stated): the Kd was > 4 mM (inactive).

For the molecule `O=C(O)Cn1nc(-c2ccccc2)c2ccccc2c1=O`, the Kd is > 4 mM (inactive).

As to `NC1=NCc2ccccc21`, the Kd was > 4 mM (inactive).

As for `O=C(O)c1ccc(CN2CCOCC2)cc1`, the Kd is > 4 mM (inactive).

Consider `O=C(Nc1ccc(Cl)cc1)N1CCCC1`, for which the Kd is > 4 mM (inactive).

For `Cc1nnc(SCC(=O)N2CCCCC2)s1`, the Kd was > 4 mM (inactive).

For `OCC1Cc2ccccc2N1` (configuration not stated), the Kd is > 4 mM (inactive).

`Cc1cc(C(=O)NCc2ccccc2Br)no1`: the Kd is > 4 mM (inactive).

On to `O=C(O)c1ccnc2ccccc12`, for which the Kd is > 4 mM (inactive).

For the molecule `NCc1ccc(S(N)(=O)=O)cc1`, the Kd was > 4 mM (inactive).

As for `S=c1oc(-c2ccncc2)nn1CCc1ccncc1`, the Kd was > 4 mM (inactive).

On to `CC(=O)c1c(O)cc(O)cc1O`, for which the Kd was > 4 mM (inactive).

As to `COc1ccc(C(=O)NC2=NCCS2)cc1OC`, the Kd is > 4 mM (inactive).

Turning to `CN1CCN(C(=O)C2CCCNC2)CC1` (configuration not stated), the Kd is > 4 mM (inactive).

Take `CCOC(=O)CC1Sc2ccccc2NC1=S` (configuration not stated): the Kd is > 4 mM (inactive).

In the case of `Nc1ccncc1`, the Kd was > 4 mM (inactive).

Regarding `CSc1nc(-c2ccccc2)ccc1C(N)=O`, the Kd was > 4 mM (inactive).

Consider `CN(C)c1nc(N2CCOCC2)nc(N2CCOCC2)n1`, for which the Kd was > 4 mM (inactive).

On to `O=c1c[n+]([O-])c2ccccc2n1OCc1ccccn1`, for which the Kd was > 4 mM (inactive).

For `C=CC(C1=CC(=O)C(OC)=CC1=O)c1ccc(O)cc1` (configuration not stated), the Kd was > 4 mM (inactive).

As for `CS(=O)(=O)c1nncn1-c1ccccc1`, the Kd was > 4 mM (inactive).

`Cc1ccc(C(=O)N2CCC(C(N)=O)CC2)c(Cl)c1`: the Kd is > 4 mM (inactive).

As to `Cc1ccc2c(C)c(C(=O)Nc3nnc(C)s3)oc2c1`, the Kd was > 4 mM (inactive).

Consider `COc1cccc(O)c1O`, for which the Kd is > 4 mM (inactive).

On to `NC(=O)CN1CCC(c2nc3ccccc3[nH]2)CC1`, for which the Kd was > 4 mM (inactive).

Regarding `COC(=O)c1c[nH]c2ccccc12`, the Kd was > 4 mM (inactive).

On to `Cc1c(CO)cnn1-c1ccccc1`, for which the Kd was > 4 mM (inactive).

For `O=C1NC(=Nc2ccccc2)S/C1=C/c1cccnc1`, the Kd is > 4 mM (inactive).

With `O=C1NC(=S)NC(=O)C1=Cc1ccncc1`, the Kd was > 4 mM (inactive).

In the case of `CC12CN(CC#N)CC(C)(CN(CC#N)C1)C2=O`, the Kd was > 4 mM (inactive).

With `Cn1cc(Cl)c(C(=O)NC2CCCCCC2)n1`, the Kd was > 4 mM (inactive).

With `CN(C)S(=O)(=O)c1ccc(N2CCOCC2)nc1`, the Kd is > 4 mM (inactive).

Turning to `O=C(c1nc2ncccn2n1)N1CCc2ccccc2C1`, the Kd is > 4 mM (inactive).

Turning to `COc1nc(C#N)c(N2CCOCC2)o1`, the Kd was > 4 mM (inactive).

Consider `O=C(O)c1coc2c1C(=O)CCC2`, for which the Kd is > 4 mM (inactive).

Turning to `NCC1COc2ccccc2O1` (configuration not stated), the Kd is > 4 mM (inactive).

In the case of `O=S1(=O)CCC(NCc2ccccc2)C1` (configuration not stated), the Kd was > 4 mM (inactive).

Turning to `COc1cc2c(cc1OC)C(=O)OC2`, the Kd is > 4 mM (inactive).

Take `O=C(O)c1cccc2c1OCCCO2`: the Kd was > 4 mM (inactive).

Regarding `Cc1nnc(NC(=O)C(C)Sc2nncn2C)s1` (configuration not stated), the Kd is > 4 mM (inactive).

Take `Cc1occc1C(=O)NCc1ccncc1`: the Kd was > 4 mM (inactive).

For the molecule `CC(=O)Nc1ccc2c(c1)n(C)c(=O)n2C`, the Kd was > 4 mM (inactive).

As for `Nc1ccccc1C(=O)N1CCOCC1`, the Kd is > 4 mM (inactive).

As for `Cn1c(=O)n(C)c2nc([N+](=O)[O-])c(Cl)cc21`, the Kd was > 4 mM (inactive).

Consider `c1ccc(CN2CCC3(CC2)Nc2ccccc2CO3)cc1`, for which the Kd was > 4 mM (inactive).

Regarding `OCc1ccc2c(c1)OCCO2`, the Kd was > 4 mM (inactive).

Take `NC1=C([N+](=O)[O-])C(=O)c2ccccc21`: the Kd is > 4 mM (inactive).

Regarding `COc1ccccc1N1C(=N)SCC1=O`, the Kd was > 4 mM (inactive).

Consider `O=C(NCN1CCOCC1)c1cccnc1`, for which the Kd is > 4 mM (inactive).

Take `Cc1csc2nc(N)nn12`: the Kd was > 4 mM (inactive).

One may read the Kd as the constant that tells how readily two partners part at equilibrium.
